# Laboratory results published in patent US6395913B1, “Recovery and purification of 3,4-epoxy-1-butene” (Eastman Chemical Company, priority 2001, dated 2002).
# Tests used:
# Type in all cases: physicochemical
# [1] = Extraction affinity of water-immiscible solvents: distribution coefficients against a standard water/3-buten-1,2-diol/epoxybutene solution; details: room temperature; for Distribution Coefficients Epoxy-Butene: 1 part solvent : 1 part standard solution (35% water/65% diol with approx. 10 wt% epoxybutene), GC analysis, ONE PHASE = no phase separation; for Distribution Coefficients Solvent / Distribution Coefficients Water / Distribution Coefficients Diol: 1 part solvent : 1 part standard water-diol-epoxybutene solution; for Distribution Coefficients Diol: diol = 3-buten-1,2-diol
# Experimental: This example compares the extraction affinity of various water-immiscible solvents for epoxybutene in the presence of aqueous absorbent mixtures, as occurs in the extraction zone of both embodiments of this invention. A standard mixture of 35% water and 65% 3-buten-1,2-diol (diol) was prepared. […] For each candidate extractant solvent specified in Table 1, one part by weight water-immiscible solvent was added to one part standard water-diol-epoxybutene solution in a separatory funnel. The mixture was vigorously shaken, allowed to settle, then separated into two liquid phases at room temperature. The aqueous and organic layers from the decantation were analyzed by gas chromatography to determine the composition of each layer. From these compositions, distribution coefficients were calculated for epoxybutene, water, diol, and the candidate extractant as follows: [formula]
# [2] = Rate of epoxybutene hydrolysis as a function of pH
# Excerpt: Epoxybutene reacts readily with nucleophiles such as water and alcohols to form 3-butene-1,2-diol and glycol ethers, respectively. However, the relative rate of epoxybutene reaction with nucleophiles is a function of pH. Epoxybutene, like other epoxides, undergoes both acid and base catalysis. Acid catalysis has the larger influence on the rate of reaction. For example, the rate of epoxybutene hydrolysis is over 500 times greater at pH 3 than at pH 7. At pH 11, the rate is over 17 times greater than at pH 7. Since it is desirable to minimize epoxybutene losses due to reaction with nucleophiles, EpB reactivity can be reduced by maintaining the epoxybutene-laden solution at or near a pH of about 7 to 8. This can be done by adding a basic compound to the recovery system. Generally the process gas from the reactor contains ppm levels of formic acid and other organic acids. Thus, any basic material which is capable of neutralizing organic acids may be used in the present process. […]
# [3] = Epoxybutene loss by reaction (hydrolysis) during continuous distillation; details: for epoxybutene present in the feed reacted to form 1,2-diol and higher diol oligomers: about 1 bar
# Experimental: The distillation was conducted in a silvered, vacuum-jacketed glass Oldershaw column, equipped with a liquid-dividing distillation head, feed tray, reflux magnet, reflux timer, cooling water condenser, jacketed reboiler, pressure gage, and nitrogen purge line. The column was configured with a 15-plate stripping section, a 10-plate rectifying section, and a 500 ml jacketed flask heated by a thermostatted circulating oil bath. Feed to the column was supplied from a 5-liter jacketed vessel via a piston pump and bottoms take-off was removed via a second piston pump. The bottoms product was cooled in a small water-chilled stainless steel heat exchanger placed in line on the suction side of the pump. The distillate product flowed by gravity to a jacketed cooled receiver, which also functioned as a phase decanter. Thermocouples were provided at the reboiler, and distillation head. The continuous run lasted about 12 hours in duration with a total feed of about 1192 grams. A reflux ratio of 1:1 was employed. The column was operated at about 1 bar absolute pressure. During steady state operation the average distillate composition comprised about 16% water, 84% epoxybutene, and less than 0.01% 1,2-diol. The distillate separated into two liquid phases upon settling. The average bottoms product comprised 59.2% water, less than 0.2% epoxybutene, and 39.9% 1,2-diol. Approximately 66% of the epoxybutene present in the feed reacted to form 1,2-diol and higher diol oligomers and 93% of the unreacted epoxybutene was recovered in the distillate.
# The distillation was conducted in a silvered, vacuum-jacketed glass Oldershaw column, equipped with a liquid-dividing distillation head, feed tray, reflux magnet, reflux timer, cooling water condenser, jacketed reboiler, pressure gage, and nitrogen purge line. The column was configured with a 15-plate stripping section, a 10-plate rectifying section, and a 500 ml jacketed flask heated by a thermostatted circulating oil bath. Feed to the column was supplied from a 5-liter jacketed vessel via a piston pump and bottoms take-off was removed via a second piston pump. The product removed from the base of the column was cooled in a small water-chilled stainless steel heat exchanger placed in line on the suction side of the pump. The distillate product flowed by gravity to a jacketed cooled receiver, which also functioned as a phase decanter. Thermocouples were provided at the reboiler, and distillation head. The continuous run lasted about 10 hours in duration with a total feed of about 3028 grams. A reflux ratio of 3:1 was employed. The column was operated at about 1 bar absolute pressure. During steady state operation the average distillate composition comprised about 20.4% water, 79.4% epoxybutene, and less than 0.2% 1,2-diol. […]
Structure (SMILES),Distribution Coefficients Epoxy-Butene [1],Distribution Coefficients Solvent [1],Distribution Coefficients Water [1],Distribution Coefficients Diol [1],further results
"c1ccc2c(c1)CCCC2 [1,2,3,4-Tetrahydronaphthalene]",1.91,51.8,0.010,0.021,
"Clc1ccccc1Cl [1,2-Dichlorobenzene]",3.91,54.4,0.002,0.007,
"CC(C)c1cccc(C(C)C)c1 [1,3-Diisopropylbenzene]",1.92,329,0.001,0.004,
Cc1cccc2ccccc12 [1-Methylnaphthalene],3.10,101,0.002,0.006,
"CC(C)C(=O)OCC(C)(C)C(OC(=O)C(C)C)C(C)C (stereo not drawn) [2,2,4-Trimethyl-1,3-Pentanediol Diisobutyrate]",2.19,124,0.012,0.027,
CCCCC(CC)CO (stereo not drawn) [2-Ethylhexanol],ONE PHASE,,,,
COCC(C)OC(C)=O (stereo not drawn) [2-Methoxy-1-Methylethyl Acetate],ONE PHASE,,,,
CCCC(C)=O [2-Pentanone],ONE PHASE,,,,
CCC(O)CC [3-Pentanol],ONE PHASE,,,,
CCC(=O)CC [3-Pentanone],ONE PHASE,,,,
CCCCOC(=O)CC [Butyl Propionate],3.96,14.1,0.042,0.115,
ClC(Cl)Cl [Chloroform],8.73,8.33,0.024,0.106,
C1CCCCC1 [Cyclohexane],2.09,215,0.001,0.000,
O=C1CCCCC1 [Cyclohexanone],ONE PHASE,,,,
C[S+](C)[O-] [Dimethylsulfoxide],ONE PHASE,,,,
CC(C)COC(=O)C(C)C [Isobutyl isobutyrate],3.49,34.4,0.022,0.065,
CC(=O)OCCC(C)C [Isopentyl Acetate],2.80,25.6,0.073,0.181,
CC1=CC(=O)CC(C)(C)C1 [Isophorone],ONE PHASE,,,,
C=C(C)[C@H]1CC=C(C)CC1 [Limonene],2.28,352,0.001,0.003,
COC(=O)c1ccccc1 [Methyl Benzoate],2.84,6.66,0.076,0.155,
CC(=O)CC(C)C [Methyl Isobutyl Ketone],ONE PHASE,,,,
COC(C)(C)C [Methyl t-Butyl Ether],ONE PHASE,,,,
CC1COC(=O)O1 (stereo not drawn) [Propylene Carbonate],ONE PHASE,,,,
"C=CC1CO1 (stereo not drawn) [epoxybutene, 3,4-epoxy-1-butene]",,,,,"rate of epoxybutene hydrolysis relative to pH 7 ([2]; pH 3 versus pH 7): over 500 times; rate of epoxybutene hydrolysis relative to pH 7 ([2]; pH 11 versus pH 7): over 17 times; epoxybutene present in the feed reacted to form 1,2-diol and higher diol oligomers ([3]; Comparative Example 1: distillation from 45.4% water, 9.1% epoxybutene, 45.5% 1,2-diol): Approximately 66%; epoxybutene present in the feed reacted to form 1,2-diol and higher diol oligomers ([3]; Example 6: distillation from p-xylene extract): Less than 0.5%; epoxybutene present in the feed reacted to form 1,2-diol and higher diol oligomers ([3]; Example 7: distillation from isobutyl isobutyrate extract): Less than 0.4%; percent epoxybutene loss ([3]; Example 11: distillation of water-rich layer (96.92% water, 3.0% epoxybutene), feed pH 8 with K2CO3-H3PO4 buffer, 740 Torr): 1.5%"
Cc1cccc(C)c1 [m-Xylene],2.32,1479,0.002,0.005,
CCCCCCCCCC [n-Decane],1.06,1907,0.000,0.001,
CCCCCCC [n-Heptane],1.93,851,0.001,0.001,
Cc1ccc(C)cc1 [p-Xylene],4.34,368,0.002,0.005,
